# Test results: article PMC8482776 (ACS Omega, 2021)
# Legend:
# Asp. terreus (PTCC 5023) = test: Microdilution MIC90, strain J; type: cell-based, Aspergillus terreus; conditions: Aspergillus terreus, PTCC5023, 48 h, filamentous fungi, 48 h at 37 °C, triplicate
# [1] = tested on: Asp. flavus (ATCC 204304); test: Microdilution MIC90, strain G; type: cell-based, Aspergillus flavus; conditions: filamentous fungi, 48 h at 37 °C, triplicate
# Asp. niger (PTCC 5154) = test: Microdilution MIC90, strain I; type: cell-based, Aspergillus niger; conditions: filamentous fungi, 48 h at 37 °C, triplicate
# C. albicans (ATCC 10231) = test: Microdilution MIC90, strain A; type: cell-based; conditions: strain A; for MIC90: yeast, 24 h at 37 °C, triplicate
# [2] = tested on: C. tropicalis (PTCC 5028); test: Microdilution MIC90, strain E; type: cell-based; conditions: 24 h
# M. canis (PTCC 5069) = test: Microdilution MIC90, strain O; type: cell-based; conditions: Microsporum canis, PTCC5069, 48 h
# [3] = tested on: T. schoenleinii (PTCC 5221); test: Microdilution MIC90, strain N; type: cell-based; conditions: Trichophyton schoenleinii, PTCC5221, 48 h
# [4] = tested on: T. mentagrophytes (PTCC 5054); test: Microdilution MIC90, strain M; type: cell-based; conditions: Trichophyton mentagrophytes, PTCC5054, 48 h
# C. krusei (ATCC 6258) = test: Microdilution MIC90, strain B; type: cell-based; conditions: for MIC90: yeast, 24 h at 37 °C, triplicate
# [5] = tested on: C. parapsilosis (ATCC 22019); test: Microdilution MIC90, strain D; type: cell-based; conditions: 24 h
# [6] = tested on: Asp. nidulans (PTCC 5014); test: Microdilution MIC90, strain F; type: cell-based, Aspergillus nidulans; conditions: filamentous fungi, 48 h at 37 °C, triplicate
# [7] = tested on: Asp. fumigatus (PTCC 5009); test: Microdilution MIC90, strain H; type: cell-based; conditions: filamentous fungi, 48 h at 37 °C, triplicate
# T. rubrum (PTCC 5143) = test: Microdilution MIC90, strain K; type: cell-based, Trichophyton rubrum; conditions: filamentous fungi, 48 h at 37 °C, triplicate
# C. glabrata (ATCC 90030) = test: Microdilution MIC90, strain C; type: cell-based; conditions: 24 h, yeast, 24 h at 37 °C, triplicate
# [8] = tested on: Microsporum gypseum (PTCC 5070); test: Microdilution MIC90, strain L; type: cell-based; conditions: filamentous fungi, 48 h at 37 °C, triplicate
# [9] = Aspergillus flavus, ATCC204304, 48 h
# [10] = Aspergillus niger, PTCC5154, 48 h
# [11] = Aspergillus nidulans, PTCC5014, 48 h
# [12] = Aspergillus fumigatus, PTCC5009, 48 h
# [13] = Trichophyton rubrum, PTCC5143, 48 h
Structure (SMILES),MIC90 (Asp. terreus (PTCC 5023)) [µg/mL],"MIC90 [1, 9] [µg/mL]",MIC90 (Asp. niger (PTCC 5154); [10]) [µg/mL],MIC90 (C. albicans (ATCC 10231); 24 h) [µg/mL],MIC90 [2] [µg/mL],MIC90 (M. canis (PTCC 5069)) [µg/mL],MIC90 [3] [µg/mL],MIC90 [4] [µg/mL],MIC90 (C. krusei (ATCC 6258); 24 h) [µg/mL],MIC90 [5] [µg/mL],"MIC90 [6, 11] [µg/mL]","MIC90 [7, 12] [µg/mL]",MIC90 (T. rubrum (PTCC 5143); [13]) [µg/mL],MIC90 (C. glabrata (ATCC 90030)) [µg/mL],MIC90 [6] [μg·mL^–1],MIC90 [1] [μg·mL^–1],also measured
"COc1cccc(NC(=O)Nc2nnc(SCC(O)(Cn3cncn3)c3ccc(F)cc3F)s2)c1 (stereo not shown) [Compound 8h, 1-(5-((2-(2,4-Difluorophenyl)-2-hydroxy-3-(1H-1,2,4-triazol-1-yl)propyl)thio)-1,3,4-thiadiazol-2-yl)-3-(3-methoxyphenyl)urea]",16,8,8,16,16,32,32,16,8,4,2 to 4,16,2,,4,,
"O=C(Nc1cccc(C(F)(F)F)c1)Nc1nnc(SCC(O)(Cn2cncn2)c2ccc(F)cc2F)s1 (stereo not shown) [Compound 8j, 1-(5-((2-(2,4-Difluorophenyl)-2-hydroxy-3-(1H-1,2,4-triazol-1-yl)propyl)thio)-1,3,4-thiadiazol-2-yl)-3-(3-(trifluoromethyl)phenyl)urea]",32,16,32,,16,16,16,16,32,8,16,16,8,32,,,
"O=C(Nc1nnc(SCC(O)(Cn2cncn2)c2ccc(F)cc2F)s1)Nc1ccccc1Br (stereo not shown) [Compound 8m, 1-(2-Bromophenyl)-3-(5-((2-(2,4-difluorophenyl)-2-hydroxy-3-(1H-1,2,4-triazol-1-yl)propyl)thio)-1,3,4-thiadiazol-2-yl)urea]",16,8,32,32,8,64,64,32,,16,8,32,2 to 4,16,,,MIC90 (T. rubrum (PTCC 5143)): 4 μg·mL^–1
"Cc1ccccc1NC(=O)Nc1nnc(SCC(O)(Cn2cncn2)c2ccc(F)cc2F)s1 (stereo not shown) [Compound 8n, 1-(5-((2-(2,4-Difluorophenyl)-2-hydroxy-3-(1H-1,2,4-triazol-1-yl)propyl)thio)-1,3,4-thiadiazol-2-yl)-3-(o-tolyl)urea]",,8,,,,,,,,,2 to 4,,,,4,,
"O=C(Nc1ccc(Cl)c(Cl)c1)Nc1nnc(SCC(O)(Cn2cncn2)c2ccc(F)cc2F)s1 (stereo not shown) [Compound 8q, 1-(3,4-Dichlorophenyl)-3-(5-((2-(2,4-difluorophenyl)-2-hydroxy-3-(1H-1,2,4-triazol-1-yl)propyl)thio)-1,3,4-thiadiazol-2-yl)urea]",8,8,32,32,16,16,16,16,,4,8,32,2 to 4,,,,MIC90 (T. rubrum (PTCC 5143)): 4 μg·mL^–1

# Further lines, with some results ahead:
MIC90 (Asp. terreus (PTCC 5023)) [µg/mL],"MIC90 [1, 9] [µg/mL]",MIC90 (Asp. niger (PTCC 5154); [10]) [µg/mL],MIC90 (C. albicans (ATCC 10231); 24 h) [µg/mL],MIC90 [2] [µg/mL],MIC90 (M. canis (PTCC 5069)) [µg/mL],MIC90 [3] [µg/mL],MIC90 [4] [µg/mL],MIC90 (C. krusei (ATCC 6258); 24 h) [µg/mL],MIC90 [5] [µg/mL],"MIC90 [6, 11] [µg/mL]","MIC90 [7, 12] [µg/mL]",MIC90 (T. rubrum (PTCC 5143); [13]) [µg/mL],MIC90 (C. glabrata (ATCC 90030)) [µg/mL],MIC90 [6] [μg·mL^–1],MIC90 [1] [μg·mL^–1],Structure (SMILES),also measured
8,8,2 to 4,32,32,2,8,16,1 to 16,8,16,2 to 4,2,,,,"O=C(Nc1ccc(Cl)cc1)Nc1nnc(SCC(O)(Cn2cncn2)c2ccc(F)cc2F)s1 (stereo not shown) [Compound 8a, 1-(4-Chlorophenyl)-3-(5-((2-(2,4-difluorophenyl)-2-hydroxy-3-(1H-1,2,4-triazol-1-yl)propyl)thio)-1,3,4-thiadiazol-2-yl)urea]",MIC90 (Asp. niger (PTCC 5154)): 4 μg·mL^–1; MIC90 (C. krusei (ATCC 6258)): 1 μg·mL^–1; MIC90 [7]: 1 μg·mL^–1
32,8,64,32,32,64,32,32,,8,2 to 4,64,4,32,4,,"O=C(Nc1ccc(Br)cc1)Nc1nnc(SCC(O)(Cn2cncn2)c2ccc(F)cc2F)s1 (stereo not shown) [Compound 8d, 1-(4-Bromophenyl)-3-(5-((2-(2,4-difluorophenyl)-2-hydroxy-3-(1H-1,2,4-triazol-1-yl)propyl)thio)-1,3,4-thiadiazol-2-yl)urea]",
16,8,16,0.5,16,16,8,32,0.5,8,2 to 4,16,8,,4,,"Cc1ccc(NC(=O)Nc2nnc(SCC(O)(Cn3cncn3)c3ccc(F)cc3F)s2)cc1 (stereo not shown) [Compound 8e, 1-(5-((2-(2,4-Difluorophenyl)-2-hydroxy-3-(1H-1,2,4-triazol-1-yl)propyl)thio)-1,3,4-thiadiazol-2-yl)-3-(p-tolyl)urea]",fold greater potency than that of FLC (C. albicans (ATCC 10231); from MIC values): 32 fold; MIC90 (C. albicans (ATCC 10231)): 1 μg·mL^–1; MIC90 [8]: 2 μg·mL^–1; fold greater potency than that of FLC (C. krusei (ATCC 6258); from MIC values): 32 fold; MIC90 (C. krusei (ATCC 6258)): 1 μg·mL^–1
,2 to 4,,4,,,,,,8,2 to 4,,2,,4,4,"O=C(Nc1cccc(Cl)c1)Nc1nnc(SCC(O)(Cn2cncn2)c2ccc(F)cc2F)s1 (stereo not shown) [Compound 8f, 1-(3-Chlorophenyl)-3-(5-((2-(2,4-difluorophenyl)-2-hydroxy-3-(1H-1,2,4-triazol-1-yl)propyl)thio)-1,3,4-thiadiazol-2-yl)urea]",MIC90 [8]: 4 μg·mL^–1
32,2 to 4,16,8,8,16,8,16,16,8,2 to 4,8,16,32,2,2,"Cc1cccc(NC(=O)Nc2nnc(SCC(O)(Cn3cncn3)c3ccc(F)cc3F)s2)c1 (stereo not shown) [Compound 8i, 1-(5-((2-(2,4-Difluorophenyl)-2-hydroxy-3-(1H-1,2,4-triazol-1-yl)propyl)thio)-1,3,4-thiadiazol-2-yl)-3-(m-tolyl)urea]",
16,2 to 4,16,,16,16,16,32,,4,2 to 4,16,8,16,4,2,"O=C(Nc1nnc(SCC(O)(Cn2cncn2)c2ccc(F)cc2F)s1)Nc1ccccc1C(F)(F)F (stereo not shown) [Compound 8k, 1-(5-((2-(2,4-Difluorophenyl)-2-hydroxy-3-(1H-1,2,4-triazol-1-yl)propyl)thio)-1,3,4-thiadiazol-2-yl)-3-(2-(trifluoromethyl)phenyl)urea]",
,2 to 4,,,,,,,,8,8,,,,,4,"O=C(Nc1nnc(SCC(O)(Cn2cncn2)c2ccc(F)cc2F)s1)Nc1ccccc1Cl (stereo not shown) [Compound 8l, 1-(2-Chlorophenyl)-3-(5-((2-(2,4-difluorophenyl)-2-hydroxy-3-(1H-1,2,4-triazol-1-yl)propyl)thio)-1,3,4-thiadiazol-2-yl)urea]",
16,2 to 4,,,32,16,16,16,,8,8,,16,32,,4,"O=C(Nc1nnc(SCC(O)(Cn2cncn2)c2ccc(F)cc2F)s1)Nc1ccc(F)cc1F (stereo not shown) [Compound 8p, 1-(2,4-Difluorophenyl)-3-(5-((2-(2,4-difluorophenyl)-2-hydroxy-3-(1H-1,2,4-triazol-1-yl)propyl)thio)-1,3,4-thiadiazol-2-yl)urea]",MIC90 [8]: 4 μg·mL^–1
